According to US4724237A, “2-substituted-aminomethyl-1,4-benzodiazepines” (Merck & Co., Inc., priority 1984, dated 1988):
pIC50: −log10 of the molar value. Counter-ions that a name gives are not always drawn. Like-named read-outs stand apart in the source and are kept apart here. Square brackets hold non-standard residues; d marks the D form. Peptide text beside a SMILES is read from it. * marks the point of attachment. sY = N[C@@H](Cc1ccc(OS(=O)(=O)O)cc1)C(=O)O; Cbz = O=C(OCc1ccccc1)*; Boc = CC(C)(C)OC(=O)*

Legend:
[1] = target: T1, CCK receptor (pancreas) (Rattus norvegicus, UniProt P30551); test: CCK receptor binding (pancreas) method, inhibition of ^125 I-CCK-33 binding; parameters: species or system male Sprague-Dawley rat; conditions: for effect on the ^125 I-CCK receptor binding assay: additional protease inhibitors in the assay buffer
T1 construct: The whole pancreas of a male Sprague-Dawley rat (200-350 g); from tissue; host or cells: whole pancreas of male Sprague-Dawley rat, washed membrane homogenate
T1 sequence (P30551 1-444): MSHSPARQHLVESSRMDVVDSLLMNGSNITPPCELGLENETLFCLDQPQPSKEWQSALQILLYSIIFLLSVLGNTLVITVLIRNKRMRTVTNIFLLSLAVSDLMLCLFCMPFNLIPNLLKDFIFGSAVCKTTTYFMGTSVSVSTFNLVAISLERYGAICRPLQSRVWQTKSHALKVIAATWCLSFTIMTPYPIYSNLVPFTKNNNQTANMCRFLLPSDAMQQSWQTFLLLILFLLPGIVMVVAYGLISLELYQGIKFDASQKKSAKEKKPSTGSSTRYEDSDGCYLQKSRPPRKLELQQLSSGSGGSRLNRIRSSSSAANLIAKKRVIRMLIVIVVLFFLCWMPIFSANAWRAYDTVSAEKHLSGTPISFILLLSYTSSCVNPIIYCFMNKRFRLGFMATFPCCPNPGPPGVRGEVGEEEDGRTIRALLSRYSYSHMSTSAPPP
From the text: (§1) Screening of the novel compounds according to the present invention to determine biological activity and obtain an IC50 value for them, in order to identify significant CCK-antagonism, may be accomplished using an ^125 I-CCK receptor binding assay and in vitro isolated tissue preparations. These tests involve the following:
CCK receptor binding (pancreas) method
CCK-33 was radiolabeled with ^125 I-Bolton Hunter reagent (2000 Ci/mmole), as described by Sankara et al. (J. Biol. Chem., 254, 9349-9351, 1979).
The whole pancreas of a male Sprague-Dawley rat (200-350 g), which had been sacrificed by decapitation, was dissected free of fat tissue and homogenized in 20 volumes of ice-cold 50 mM Tris HCl (pH 7.7 at 25° C.) with a Brinkmann Polytron PT-10. The homogenates were centrifuged at 48,000 g for 10 minutes, then the resulting pellets were resuspended in Tris Buffer, centrifuged as above, and resuspended in 200 volumes of binding assay buffer (50 mM Tris HCl, pH 7.7 at 25° C., 5 mM dithiothreitol, 0.1 mM bacitracin, 1.2 mM phenylmethane sulfonyl fluoride and 0.5 mM o-phenanthroline).
All assays were run in duplicate or triplicate, and the reaction mixtures were incubated at 37° C. for 30 minutes and centrifuged in a Beckman Microfuge (4 minutes) immediately after adding 1 ml of ice-cold incubation buffer. The supernatant was aspirated and discarded, and the pellets were counted with a Beckman Gamma 5000.

[2] = target: T2, CCK receptor (brain) (Cavia porcellus, UniProt H0VZC5); test: CCK receptor binding (brain) method, inhibition of ^125 I-CCK-33 binding; parameters: species or system male Hartley guinea pig
T2 construct: The cerebral cortex was dissected and used as a receptor source; from tissue; host or cells: cerebral cortex of male Hartley guinea pig, membrane homogenate
Experimental: as §1
CCK receptor binding (brain) method
CCK-33 was radiolabeled and the binding was performed according to the description for the pancreas method, with modifications according to Saito et al., J. Neurochem., 37, 483-490, 1981.
Male Hartley guinea pigs (300-500 g) were sacrificed by decapitation, and the brains were removed and placed in ice-cold 50 mM Tris HCl (Trizma-7.4)[pH 7.4 at 25° C.]. The cerebral cortex was dissected and used as a receptor source and each gram of fresh guinea pig brain tissue was homogenized in 10 ml of Tris/Trizma buffer with a Brinkman polytron PT-10. The homogenates were centrifuged at 42,000 g for 15 minutes, then the resulting pellets were resuspended in 80 volumes of binding assay buffer (10 mM N-2-hydroxy-ethyl-piperazine-N'-2-ethanesulfonic acid (HEPES), 5 mM MgCl2, 1 mM ethylene glycol-bis-(β-amino-ethyl-ether-N,N'-tetraacetic acid (EGTA), 0.4% BSA and 0.25 mg/ml bacitracin, pH 6.5).
The remainder of the binding assay method was as described for the pancreas method, except that the reaction mixtures were incubated at 25° C. for 2 hours before centrifugation.

[3] = system: CCK-receptor; conditions: structure-function studies, in words; cited from earlier work
[4] = in words; cited from earlier work
[5] = system: kappa receptor; conditions: D. Roemer et al., Nature, 298, 759 (1982); cited from earlier work
[6] = system: rats; conditions: J. E. Morley et al.; cited from earlier work
[7] = concentration required to cause inhibition of 50% of the ^125 I-CCK binding, pancreas, 37° C., 30 minutes

T2 sequence (H0VZC5 entry or part of it): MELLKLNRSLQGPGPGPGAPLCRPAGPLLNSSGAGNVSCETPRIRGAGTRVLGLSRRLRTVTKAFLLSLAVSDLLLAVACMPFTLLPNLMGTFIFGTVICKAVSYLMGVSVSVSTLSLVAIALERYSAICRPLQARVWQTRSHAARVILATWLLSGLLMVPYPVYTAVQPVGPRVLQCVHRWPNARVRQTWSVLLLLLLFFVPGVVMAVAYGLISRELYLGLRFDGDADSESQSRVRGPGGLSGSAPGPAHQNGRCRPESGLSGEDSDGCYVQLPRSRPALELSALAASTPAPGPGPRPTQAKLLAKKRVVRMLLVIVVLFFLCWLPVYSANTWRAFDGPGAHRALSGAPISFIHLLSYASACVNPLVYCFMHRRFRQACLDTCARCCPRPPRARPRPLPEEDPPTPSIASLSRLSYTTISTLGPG

SMILES | pIC50 [1] | pIC50 ([2]; read-out: IC50 CCK, Brain) | pIC50 [1, 7] | further results
CN1c2ccccc2C(c2ccccc2F)=NCC1CNc1cccc(C(F)(F)F)c1 (stereo not drawn) [Example 6, 1-methyl-2-(3'-trifluoromethylphenyl)aminomethyl-5-(2'-fluorophenyl)-2,3-dihydro-1H-1,4-benzodiazepine] | 5.66 | ~4.00 | – | –
CSCC[C@H](NC(=O)OC(C)(C)C)C(=O)N[C@@H](CC(=O)O)C(=O)N[C@@H](Cc1ccccc1)C(N)=O [Boc-Met-Asp-Phe-NH2] (Boc-Met-Asp-Phe-NH2) | – | – | – | CCK antagonism [3]: can function as CCK antagonists
CN1c2ccccc2C(c2ccccc2F)=NCC1CNC(=O)c1ccsc1 (single isomer, unassigned; (-)) [(-)-enantiomer] | – | – | – | analgesic activity [4]: preferred for high analgesic activity
CN1c2ccccc2C(c2ccccc2F)=NCC1CNC(=O)Cc1c[nH]c2ccccc12 (stereo not drawn) [Example 4, 1-methyl-2-(1H-indol-3-yl)methylcarbonylaminomethyl-5-(2'-fluorophenyl)-2,3-dihydro-1H-1,4-benzodiazepine hydrate] | 6.00 | 4.25 | – | –
CN1c2ccccc2C(c2ccccc2F)=NCC1CNC(=O)[C@@H](O)c1ccccc1 (stereo partly drawn) [Example 3, 1-methyl-2-(2-L-hydroxy-2-phenylacetyl)aminomethyl-5-(2'-fluorophenyl)-2,3-dihydro-1H-1,4-benzodiazepine] | 6.22 | ~4.00 | – | –
COC(C(=O)NCC1CN=C(c2ccccc2F)c2ccccc2N1C)(c1ccccc1)C(F)(F)F (stereo not drawn) [Example 10, 1-methyl-2-(2-methoxy-2-trifluoromethyl-2-phenylacetyl)aminomethyl-5-(2'-fluorophenyl)-2,3-dihydro-1H-1,4-benzodiazepine] | – | – | 4.89 | pIC50 [2]: ~4.00
CC(=O)NCSCC(=O)NCC1CN=C(c2ccccc2F)c2ccccc2N1C (stereo not drawn) [Example 13, 1-methyl-2-(acetamidomethylmercaptoacetyl)aminomethyl-5-(2'-fluorophenyl-2,3-dihydro-1H-1,4-benzodiazepine hydrate] | – | ~4.00 | 4.00 | –
O=S(=O)(F)Cc1ccccc1 [phenyl-methane sulfonyl fluoride, reference compound] | – | – | – | effect on the ^125 I-CCK receptor binding assay [1]: no effect
CN1c2ccccc2C(c2ccccc2F)=NCC1CNC(=O)Cc1cccc2sccc12 (stereo not drawn) [Example 2, 1-methyl-2-(4-thianaphthenemethylcarbonyl)aminomethyl-5-(2'-fluorophenyl)-2,3-dihydro-1H-1,4-benzodiazepine] | – | – | 6.35 | pIC50 [2]: 4.64
CN1c2ccccc2C(c2ccccc2F)=NCC1CNC(=O)[C@H](Cc1c[nH]c2ccccc12)NC(=O)OC(C)(C)C (stereo partly drawn) [Example 7, 1-methyl-2-[2-((1,1-dimethylethoxy)carbonyl)amino-3-(1H-indol-3-yl)propanoyl]aminomethyl-5-(2'-fluorophenyl)-2,3-dihydro-1H-1,4-benzodiazepine] | 5.39 | – | – | pIC50 [2]: 4.41
CSCC[C@H](NC(=O)[C@H](Cc1ccc(OS(=O)(=O)O)cc1)NC(=O)OCc1ccccc1)C(=O)NCC(=O)N[C@@H](Cc1c[nH]c2ccccc12)C(=O)N[C@@H](CCSC)C(=O)N[C@@H](CC(=O)O)C(N)=O [Cbz-Tyr(SO3 H)-Met-Gly-Trp-Met-Asp-NH2] (Cbz-[sY]MGWMD-NH2) | – | – | – | CCK antagonism [3]: can function as CCK antagonists
CSCC[C@H](N)C(=O)N[C@@H](CC(=O)O)C(=O)N[C@@H](Cc1ccccc1)C(N)=O [Met-Asp-Phe-NH2] (H-Met-Asp-Phe-NH2) | – | – | – | CCK antagonism [3]: can function as CCK antagonists
COC(=O)[C@H](Cc1ccccc1)NCC1CN=C(c2ccccc2F)c2ccccc2N1C (stereo partly drawn) [Example 5, 1-methyl-2-[1-(S)-1-methoxycarbonyl-2-phenylethylamino]methyl-5-(2'-fluorophenyl)-2,3-dihydro-1H-1,4-benzodiazepine] | 5.80 | ~4.00 | – | –
CN1c2ccccc2C(c2ccccc2F)=NCC1CNC(=O)c1ccsc1 (stereo not drawn) | – | – | – | opiate agonism, selectivity for the kappa receptor [5]: opiate-agonist with selectivity for the kappa receptor; food intake [6]: increase food intake in rats
CN1c2ccccc2C(c2ccccc2F)=NCC1CNC(=O)c1cc2ccccc2[nH]1 (stereo not drawn) [Example 1, 1-methyl-2-(2'-indolecarbonyl)aminomethyl-5-(2'-fluorophenyl)-2,3-dihydro-1H-1,4,-benzodiazepine] | – | 4.85 | 6.80 | –
CN1c2ccccc2C(c2ccccc2F)NCC1CNC(=O)c1ccsc1 (stereo not drawn) [Example 14, 1-methyl-2-(3-thiophenecarbonyl)aminomethyl-5-(2'-fluorophenyl)-2,3,4,5-tetrahydro-1H-1,4-benzodiazepine] | – | ~4.00 | 5.32 | –
c1cnc2c(c1)ccc1cccnc12 [o-phenanthroline, reference compound] | – | – | – | effect on the ^125 I-CCK receptor binding assay [1]: no effect
CC(C)COC(=O)NCC1CN=C(c2ccccc2F)c2ccccc2N1C (stereo not drawn) [Example 8, 1-methyl-2-[(2-methylpropoxy)carbonyl]aminomethyl-5-(2'-fluorophenyl)-2,3-dihydro-1H-1,4-benzodiazepine] | – | ~4.00 | 5.24 | –
CN1c2ccccc2C(c2ccccc2F)=NCC1CNC(=O)[C@@H](N)Cc1c[nH]c2ccccc12 (stereo partly drawn) [Example 9, 1-methyl-2-[2-amino-3-(1H-indol-3-yl)propanoyl]aminomethyl-5-(2'-fluorophenyl)-2,3-dihydro-1H-1,4-benzodiazepine dihydrochloride sesquihydrate] | 4.94 | – | – | pIC50 [2]: ~4.00
CN1c2ccccc2C(c2ccccc2F)=NCC1CNC(=O)CCC(=O)OCc1ccccc1 (stereo not drawn) [Example 12, 1-methy-2-benzoylsuccinoylaminomethyl-5-(2'-fluorophenyl)-2,3-dihydro-1H-1,4-benzodiazepine] | – | – | 4.35 | pIC50 [2]: 4.26
CC(=O)NCSCC(NC(=O)OC(C)(C)C)C(=O)NCC1CN=C(c2ccccc2F)c2ccccc2N1C [Example 11, 1-methyl-2-[2(S)-((1,1-dimethylethoxy)carbonyl)amino-3-acetamidomethylmercaptopropanoyl]aminomethyl-5-(2'-fluorophenyl)-2,3-dihydro-1H-1,4-benzodiazepine hemihydrate] | 4.62 | – | – | –
CCCC(=O)Nc1nc2c(ncn2[C@@H]2O[C@@H]3COP(=O)(O)O[C@H]3[C@H]2OC(=O)CCC)c(=O)[nH]1 [dibutyryl cyclic GMP] | – | – | – | CCK antagonism [3]: most potent
